Assays:
[1] = Body weight and health in Hs746t xenograft study; assay type: in vivo, mouse; details: groups treated with merestinib (6 or 12 mg/kg)
Method: (§1) Female athymic nude mice (Envigo) are used for this study. Food and water are available ad libitum. Animals are acclimated for 1 week prior to any experimental manipulation. The study is performed in accordance with AAALAC accredited institutional guidelines.
(§2) Hs746t cells are expanded in culture, harvested, and washed in Hank's Balanced Salt Solution (HBSS, GIBCO®). Approximately 5×10^6 cells in HBSS are implanted subcutaneously into the hind flank of the animal. When tumors reach an average size of 150 to 200 mm^3, the animals are randomized into groups of 7. Merestinib is prepared and administered via oral gavage at 6 or 12 mg/kg doses on a once daily schedule for 21 days.
Tumor volumes and body weight are measured bi-weekly. Statistical analysis is performed when 3 of the 7 vehicle treated animals hed been removed from the study due to tumor burden. Tumor volume is transformed to the log scale to equalize variance across time and treatment groups. The log volume data are analyzed with a two-way repeated measures analysis of variance by time and treatment using the MIXED procedures in SAS software (Version 9.3). The correlation model for the repeated measures is spatial power. Treated groups are compared to the control group at each time point. The MIXED procedure is also used separately for each treatment group to calculate adjusted means and standard errors at each time point. […]

phospho-MET (Y1234/1235) [2] = molecular target: T1, phospho-MET (Y1234/1235) (Homo sapiens, UniProt P08581, DEL964-1010); experiment: Western blotting of phospho-MET in Hs746t cells; assay type: cell-based; details: Hs746t cells (MET exon 14 skipping), 2 hours incubation, Western blot
T1 construct: Western blots performed on lysates from in vitro cultured cells confirm a strong band corresponding to MET protein; host or cells: Hs746t
Method: (§3) Hs746t cells are obtained from ATCC® (Manassas, Va.) and are maintained in DMEM Medium with L-glutamine and 10% fetal bovine serum (FBS). MKN45 cells, expressing wild-type MET, are obtained from JCRB Cell Bank (Japan) and are maintained in RPMI 1640 Medium with L-glutamine, 10% FBS, and sodium pyruvate. Cells are grown at 37° C. with 5% CO2. Cells are seeded into 6-well plates, 1 million cells/well, and incubated overnight. Cells are incubated with merestinib for 2 hours, then are lysed in radioimmunoprecipitation assay (RIPA) buffer containing protease inhibitors. Protein concentrations of cell lysates are measured with the DC™ Protein Assay (BioRad), following manufacturer directions. Lysates are electrophoresed on Novex® 4-20% Tris Glycine gels (Invitrogen), and are transferred onto polyvinylidene difluoride (PVDF) membranes. The blots are probed for total MET (clone D1C2, CELL SIGNALING TECHNOLOGY®, Cat #8198), phospho-MET (Y1234/1235, clone D26, CELL SIGNALING TECHNOLOGY®, Cat #3077), and phospho-MET (Y1003, clone 13D11, CELL SIGNALING TECHNOLOGY®, Cat #3135). Monoclonal Anti-β-Actin (clone AC-15, SIGMA-ALDRICH®, Cat #A5441) is used as a loading control. After incubating with horseradish peroxidase (HRP)-linked secondary antibodies, blots are developed with chemiluminescent substrate and imaged on a Lumi-Imager (Roche).

Hs746t-derived xenograft = experiment: In vivo Hs746t xenograft model; design: species or system mouse
Method: as §1
Merestinib is formulated as a solution in 10% PEG 400/90% (20% Captisol in water). Solution is freshly prepared every 7 days.
as §2, with “Merestinib is prepared and administered via oral gavage at 6 or 12 mg/kg doses on a once daily schedule for 21 days.” left out
Animals are sacrificed using CO2 and cervical dislocation when tumors grew larger than 2000 mm^3.
Tumor volumes and body weight are measured bi-weekly. Statistical analysis is performed when 3 of the 7 vehicle treated animals hed been removed from the study due to tumor burden. Tumor volume is transformed to the log scale to equalize variance across time and treatment groups. The log volume data are analyzed with a two-way repeated measures analysis of variance by time and treatment using the MIXED procedures in SAS software (Version 9.3). The correlation model for the repeated measures is spatial power. Treated groups are compared to the control group at each time point. The MIXED procedure is also used separately for each treatment group to calculate adjusted means and standard errors at each time point. Both analyses account for the autocorrelation within each animal and the loss of data that occurs when animals are removed or lost before the end of the study. The adjusted means and standard errors are plotted for each treatment group versus time.
Measure tumor growth with calipers. Calculate tumor volumes by the formula Volume (mm^3)=L×W^2 (π/6) where L represents the larger diameter and W the smaller diameter. Calculate T/C % using the formula T/C %=100×ΔT/ΔC. Where ΔT=mean tumor volume of the drug-treated group on the final day of the study−mean tumor volume of the drug-treated group on the initial day of the dosing and ΔC=mean tumor volume of the control group on the final day of the study−mean tumor volume of the control group on the initial day of the dosing. Calculate changes in body weight by the formula (Weight on observation day−Weight on day 12)/Weight on Day 12×100.

phospho-MET (Y1234/1235) [3] = molecular target: T2, phospho-MET (Y1234/1235) (Homo sapiens, UniProt P08581); experiment: Western blotting of phospho-MET in MKN45 cells; assay type: cell-based; details: MKN45 cells (wild-type MET), 2 hours incubation, Western blot
T2 construct: MKN45 cells, expressing wild-type MET; host or cells: MKN45
Method: as §3

Hs746t cells = experiment: Cell proliferation assay (CELL TITER-GLO); assay type: cell-based; details: Homo sapiens, 120 h, 5 days exposure, n=2, read-out: IC50 in vitro Hs746t cell proliferation
Method: Hs746t cells are seeded onto poly-D-lysine, 96-well plates, 3000 cells/well and allowed to attach overnight in a 37° C. with 5% CO2 incubator. Merestinib is serially diluted 1:3 and added to the cells in triplicate. After 120 hours, cell viability is measured with the CELL TITER-GLO® Luminescent Cell Viability Assay (Promega), following manufacturer directions. The data are analyzed with GraphPad Prism v6 software. The assay is performed in duplicate experiments.

For Cc1ccc(C(=O)Nc2ccc(Oc3cc4cnn(C)c4cc3-c3cn[nH]c3)c(F)c2)c(=O)n1-c1ccc(F)cc1 [merestinib, N-(3-Fluoro-4-(1-methyl-6-(1H-pyrazol-4-yl)-1H-indazol-5-yloxy)phenyl)-1-(4-fluorophenyl)-6-methyl-2-oxo-1,2-dihydropyridine-3-carboxamide], the “health issues in the animals” value [1] was “no noticeable health issues”, the “phosphorylated MET at the Y1234/1235 position” value (phospho-MET (Y1234/1235) [2]) was “inhibited” and the “tumors showing signs of regrowth (2 consecutively larger tumor volume measurements)” value (Hs746t-derived xenograft; 6 mg/kg oral gavage once daily, end of study) was 5 of the 7. The “anti-tumor activity T/C” value (Hs746t-derived xenograft; 6 mg/kg oral gavage once daily, end of study, p=0.033 vs vehicle) was 18.3%, the tumor regression (Hs746t-derived xenograft; 12 mg/kg oral gavage once daily, to the end of the study) was 91.8% and the “tumor re-growth after treatment is terminated” value (Hs746t-derived xenograft; 12 mg/kg, 5 weeks after treatment terminated) was “no tumor re-growth was observed”. For the same molecule, the “animals that are complete responders” value (Hs746t-derived xenograft; 12 mg/kg, 64 days of dosing) was 6 of the 7, the “tumor re-growth during treatment (treatment resistance)” value (Hs746t-derived xenograft; 12 mg/kg, within 2 months of treatment) was “No tumor re-growth is observed” and the “phosphorylated MET at the Y1234/1235 position” value (phospho-MET (Y1234/1235) [3]) was “inhibited”. The IC50 (Hs746t cells) was 33.4 nM.

From patent publication US20210145811A1, “TREATMENT OF CANCER WITH EXON 14 SKIPPING MUTATION(S) OR EXON 14 SKIPPING PHENOTYPE” (Eli Lilly and Company, priority 2016, published 2021)
